Paper PMC4148168 (Journal of Medicinal Chemistry, 2014)

Key:
[1] = system: matrix metalloproteinases; conditions: cited from earlier work
hCAII [2] = target: T1, hCAII (Homo sapiens, UniProt P00918); test: hCAII activity assay; format: biochemical
hCAII [3] = target: T1, hCAII; conditions: aliphatic thiols; cited from earlier work

## [O-][n+]1ccccc1S [1,2-HOPTO, 1-hydroxypyridine-2-(1H)-thione]
[1]
  fold more potent than 1,2-HOPO: ~50 fold
hCAII [2]; against hCAII
  fold more potent than 1,2-HOPO: ~50 fold

## Cc1ccnc(S)c1 [4-CH3-2MPyr, 2-Mercapto-4-methylpyridine]
hCAII [2]; against hCAII
  fold decrease in potency/affinity relative to 4-CH3-1,2-HOPTO: ~200 fold

## Cc1cc(C)n(O)c(=S)c1 [4,6-CH3-1,2-HOPTO]
hCAII [2]; against hCAII
  fold decrease in potency/affinity relative to 4-CH3-1,2-HOPTO: > 20 fold

## OCCS [2-mercaptoethanol]
hCAII [3]
  inhibitory activity against hCAII (in words): lack inhibitory activity

## Cc1cccc(=S)n1O [6-CH3-1,2-HOPTO]
hCAII [2]; against hCAII
  fold decrease in potency relative to 1,2-HOPTO: 5 fold

## On1c(C(F)(F)F)cccc1=S [6-CF3-1,2-HOPTO]
hCAII [2]
  inhibition of hCAII (in words): all activity is lost

## Cc1cccn(O)c1=S [3-CH3-1,2-HOPTO]
hCAII [2]; against hCAII
  fold increase in potency over unsubstituted 1,2-HOPTO: > 10 fold
